Experimental data from paper PMC7082118 (Oncotarget, 2020).
Read-outs that look alike come from different tables or passages of the source.

Key:
[1] = molecular target: T1, CSF1R/FMS (Homo sapiens, UniProt P07333); assay: KINOMEscan kinase binding assay
T1 construct: purchased Eurofins (KINOMEscan service)
Experimental: (§1) Kd values were calculated from duplicate 11-point dose-response curves.
(§2) KINOMEscan kinase binding assays were performed at a Eurofins laboratory as previously described.

[2] = molecular target: T2, FLT1 (Homo sapiens, UniProt P17948); assay: KINOMEscan kinase binding assay
T2 construct: purchased Eurofins (KINOMEscan service)
Experimental: as §1, §2

[3] = molecular target: T3, FLT4 (Homo sapiens, UniProt P35916); assay: KINOMEscan kinase binding assay
T3 construct: purchased Eurofins (KINOMEscan service)
Experimental: as §1, §2

[4] = molecular target: T4, KDR/VEGFR2 (Homo sapiens, UniProt P35968); assay: KINOMEscan kinase binding assay
T4 construct: purchased Eurofins (KINOMEscan service)
Experimental: as §1, §2

[5] = molecular target: T5, KIT (Homo sapiens, UniProt P10721); assay: KINOMEscan kinase binding assay; details: kinase KIT
T5 construct: purchased Eurofins (KINOMEscan service)
Experimental: as §1, §2

[6] = molecular target: T6, MEK5 (Homo sapiens, UniProt Q13163); assay: KINOMEscan kinase binding assay; details: kinase MEK5 (Entrez MAP2K5)
T6 construct: purchased Eurofins (KINOMEscan service)
Experimental: as §1, §2

[7] = molecular target: T7, PDGFRα (Homo sapiens, UniProt P16234); assay: KINOMEscan kinase binding assay; details: kinase PDGFRA (PDGFRA)
T7 construct: purchased Eurofins (KINOMEscan service)
Experimental: as §1, §2

[8] = molecular target: T8, PDGFRβ (Homo sapiens, UniProt P09619); assay: KINOMEscan kinase binding assay; details: kinase PDGFRB (PDGFRB)
T8 construct: purchased Eurofins (KINOMEscan service)
Experimental: as §1, §2

[9] = molecular target: T9, RET (Homo sapiens, UniProt P07949); assay: KINOMEscan kinase binding assay
T9 construct: purchased Eurofins (KINOMEscan service)
Experimental: as §1, §2

[10] = molecular target: T10, ULK2 (Homo sapiens, UniProt Q8IYT8); assay: KINOMEscan kinase binding assay; details: kinase ULK2 (ULK2)
T10 construct: purchased Eurofins (KINOMEscan service)
T10 sequence (Q8IYT8 1-1036): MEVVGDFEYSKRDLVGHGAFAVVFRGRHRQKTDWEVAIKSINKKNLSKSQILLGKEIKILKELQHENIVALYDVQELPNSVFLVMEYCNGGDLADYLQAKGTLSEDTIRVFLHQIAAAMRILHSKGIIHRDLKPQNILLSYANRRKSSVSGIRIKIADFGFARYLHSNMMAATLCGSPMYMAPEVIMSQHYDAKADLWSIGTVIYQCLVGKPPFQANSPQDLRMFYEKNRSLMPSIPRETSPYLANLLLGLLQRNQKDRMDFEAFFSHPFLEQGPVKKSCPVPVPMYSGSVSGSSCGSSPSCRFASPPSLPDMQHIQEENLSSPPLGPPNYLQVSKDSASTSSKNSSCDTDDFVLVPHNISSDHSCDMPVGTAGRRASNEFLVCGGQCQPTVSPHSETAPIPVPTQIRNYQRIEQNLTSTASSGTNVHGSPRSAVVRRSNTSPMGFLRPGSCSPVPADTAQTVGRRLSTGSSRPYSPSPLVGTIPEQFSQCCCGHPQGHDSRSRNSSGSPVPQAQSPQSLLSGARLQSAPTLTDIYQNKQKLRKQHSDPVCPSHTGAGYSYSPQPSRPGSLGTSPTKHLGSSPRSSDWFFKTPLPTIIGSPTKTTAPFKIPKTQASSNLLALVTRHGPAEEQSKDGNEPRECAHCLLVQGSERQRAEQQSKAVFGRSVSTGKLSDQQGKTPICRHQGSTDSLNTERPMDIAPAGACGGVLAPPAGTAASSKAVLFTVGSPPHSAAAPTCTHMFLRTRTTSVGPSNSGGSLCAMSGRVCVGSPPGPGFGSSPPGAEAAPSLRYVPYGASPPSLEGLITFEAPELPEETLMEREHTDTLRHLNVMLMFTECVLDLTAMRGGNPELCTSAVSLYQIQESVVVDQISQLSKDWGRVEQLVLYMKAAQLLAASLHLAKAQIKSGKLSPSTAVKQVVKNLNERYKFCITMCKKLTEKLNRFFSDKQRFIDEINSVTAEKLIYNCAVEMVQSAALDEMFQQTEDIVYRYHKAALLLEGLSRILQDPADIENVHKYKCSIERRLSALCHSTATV
Experimental: as §1, §2

[11] = tested on: FLT3 signaling; assay: FLT3 inhibitor washout experiment in MOLM-14 cells; assay type: cell-based, human
[12] = tested on: EOL-1 cells; assay: Cell viability assay (CellTiter-Glo 2.0); assay type: cell-based, human; details: Homo sapiens, EOL1, 72 h; EOL-1, wild-type FLT3 with FIP1L-PDGFRα, 3 days
Experimental: (§3) Human AML cell lines MV4-11, Kasumi-1, HL-60, and THP-1 were purchased from the American Type Culture Collection (Manassas, Virginia, USA). MV4-11 cells were cultured in Iscove’s Modified Dulbecco’s Medium (IMDM; Thermo Fisher Scientific, Waltham, Massachusetts, USA) supplemented with 10% (vol/vol) heat-inactivated fetal bovine serum (FBS; GE Healthcare Ltd, Chicago, Illinois, USA). […] HL-60 cells were cultured in IMDM supplemented with 20% (vol/vol) heat-inactivated FBS. […] Human AML cell lines, MOLM-13, MOLM-14, EOL-1, and OCI-AML3, were purchased from Leibniz-Institut DSMZ-Deutsche Sammlung von Mikroorganismen und Zellkulturen GmbH.
(§4) The amount of ATP in viable cells was quantified as a luminescent signal using the CellTiter-Glo 2.0 Assay (Promega Corporation, Madison, Wisconsin, USA) and EnVision (PerkinElmer Inc, Waltham, Massachusetts, USA) to determine the number of viable cells according to the manufacturers’ instructions.

[13] = tested on: HL-60 cells; assay: Cell viability assay (CellTiter-Glo 2.0); assay type: cell-based, human; details: Homo sapiens, 72 h; HL-60, wild-type FLT3, 3 days
Experimental: as §3, §4

[14] = tested on: Kasumi-1 cells; assay: Cell viability assay (CellTiter-Glo 2.0); assay type: cell-based, human; details: Homo sapiens, Kasumi 1, 72 h
Experimental: as §3, §4

[15] = tested on: MOLM-13 cells; assay: Cell viability assay (CellTiter-Glo 2.0); assay type: cell-based, human; details: Homo sapiens
Experimental: as §3, §4

[16] = tested on: MOLM-14 cells; assay: Cell viability assay (CellTiter-Glo 2.0); assay type: cell-based, human; details: Homo sapiens, MOLM-14, 72 h, 3 days, read-out: IC50, cell viability
Experimental: as §3, §4

[17] = tested on: MV4-11 cells; assay: Cell viability assay (CellTiter-Glo 2.0); assay type: cell-based, human; details: Homo sapiens, 72 h; MV4-11, FLT3-ITD, 3 days
Experimental: as §3, §4

[18] = tested on: OCI-AML3 cells; assay: Cell viability assay (CellTiter-Glo 2.0); assay type: cell-based, human; details: Homo sapiens, OCI-AML-3, 72 h; OCI-AML3, wild-type FLT3, 3 days; read-out: IC50, cell viability
Experimental: as §3, §4

[19] = tested on: THP-1 cells; assay: Cell viability assay (CellTiter-Glo 2.0); assay type: cell-based, human; details: Homo sapiens, 72 h; THP-1, wild-type FLT3, 3 days; read-out: IC50, cell viability
Experimental: as §3, §4

[20] = tested on: MOLM-14-MR2 tumors; assay: MOLM-14-MR2 xenograft mouse model; assay type: in vivo; details: MOLM-14-MR2 tumors (NRAS mutated), oral once per day
[21] = tested on: MOLM-14-MR cells; assay: cells; details: Homo sapiens, 72 h, read-out: IC50, cell viability
[22] = tested on: MOLM-14-MR2 cells; assay: cells; details: Homo sapiens, 72 h, read-out: IC50, cell viability
[23] = tested on: MOLM-13-QR cells; assay: cells; details: Homo sapiens, read-out: IC50, cell viability
[24] = tested on: MOLM-13-QR2 cells; assay: cells; details: Homo sapiens, read-out: IC50, cell viability
[25] = tested on: midostaurin-resistant MOLM-14 cells; assay: cells; details: Homo sapiens, MOLM-14, read-out: IC50 against midostaurin-resistant MOLM-14 cells
[26] = tested on: MV4-11 tumors; assay: MV4-11 xenograft mouse model; details: Figure 3B

T4 sequence (P35968 20-1356): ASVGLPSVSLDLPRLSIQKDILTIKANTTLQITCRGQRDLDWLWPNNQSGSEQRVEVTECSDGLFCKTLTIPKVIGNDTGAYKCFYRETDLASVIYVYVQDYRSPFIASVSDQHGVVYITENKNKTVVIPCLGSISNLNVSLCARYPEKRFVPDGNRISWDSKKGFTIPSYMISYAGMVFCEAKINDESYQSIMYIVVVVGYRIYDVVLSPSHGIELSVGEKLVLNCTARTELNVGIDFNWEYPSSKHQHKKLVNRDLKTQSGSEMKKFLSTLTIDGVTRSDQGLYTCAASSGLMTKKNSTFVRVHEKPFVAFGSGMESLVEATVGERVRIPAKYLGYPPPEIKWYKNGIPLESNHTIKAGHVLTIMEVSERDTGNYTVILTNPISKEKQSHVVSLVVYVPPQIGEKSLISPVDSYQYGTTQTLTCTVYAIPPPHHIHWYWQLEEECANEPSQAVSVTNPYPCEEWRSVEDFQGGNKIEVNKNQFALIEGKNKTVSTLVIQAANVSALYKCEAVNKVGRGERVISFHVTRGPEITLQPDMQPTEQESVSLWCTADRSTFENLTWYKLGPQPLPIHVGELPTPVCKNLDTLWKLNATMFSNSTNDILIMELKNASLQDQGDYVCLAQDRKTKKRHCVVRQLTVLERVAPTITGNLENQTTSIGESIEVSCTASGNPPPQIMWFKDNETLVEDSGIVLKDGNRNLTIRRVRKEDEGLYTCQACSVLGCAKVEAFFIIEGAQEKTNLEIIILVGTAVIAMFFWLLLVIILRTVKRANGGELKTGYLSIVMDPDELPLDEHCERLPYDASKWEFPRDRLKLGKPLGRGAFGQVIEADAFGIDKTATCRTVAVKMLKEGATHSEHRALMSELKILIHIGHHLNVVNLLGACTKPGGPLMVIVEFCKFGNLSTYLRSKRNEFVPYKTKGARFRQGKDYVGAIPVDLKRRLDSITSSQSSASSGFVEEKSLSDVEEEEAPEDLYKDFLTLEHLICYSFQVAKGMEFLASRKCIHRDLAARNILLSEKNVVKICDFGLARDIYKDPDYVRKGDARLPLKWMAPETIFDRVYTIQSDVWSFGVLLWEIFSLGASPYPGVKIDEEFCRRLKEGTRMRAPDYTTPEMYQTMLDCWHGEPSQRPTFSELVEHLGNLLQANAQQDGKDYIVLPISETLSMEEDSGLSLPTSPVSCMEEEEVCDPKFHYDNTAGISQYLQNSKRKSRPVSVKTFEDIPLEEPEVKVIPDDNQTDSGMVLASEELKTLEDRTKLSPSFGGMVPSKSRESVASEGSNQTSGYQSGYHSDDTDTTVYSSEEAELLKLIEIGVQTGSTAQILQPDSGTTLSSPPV
T9 sequence (P07949 29-1114): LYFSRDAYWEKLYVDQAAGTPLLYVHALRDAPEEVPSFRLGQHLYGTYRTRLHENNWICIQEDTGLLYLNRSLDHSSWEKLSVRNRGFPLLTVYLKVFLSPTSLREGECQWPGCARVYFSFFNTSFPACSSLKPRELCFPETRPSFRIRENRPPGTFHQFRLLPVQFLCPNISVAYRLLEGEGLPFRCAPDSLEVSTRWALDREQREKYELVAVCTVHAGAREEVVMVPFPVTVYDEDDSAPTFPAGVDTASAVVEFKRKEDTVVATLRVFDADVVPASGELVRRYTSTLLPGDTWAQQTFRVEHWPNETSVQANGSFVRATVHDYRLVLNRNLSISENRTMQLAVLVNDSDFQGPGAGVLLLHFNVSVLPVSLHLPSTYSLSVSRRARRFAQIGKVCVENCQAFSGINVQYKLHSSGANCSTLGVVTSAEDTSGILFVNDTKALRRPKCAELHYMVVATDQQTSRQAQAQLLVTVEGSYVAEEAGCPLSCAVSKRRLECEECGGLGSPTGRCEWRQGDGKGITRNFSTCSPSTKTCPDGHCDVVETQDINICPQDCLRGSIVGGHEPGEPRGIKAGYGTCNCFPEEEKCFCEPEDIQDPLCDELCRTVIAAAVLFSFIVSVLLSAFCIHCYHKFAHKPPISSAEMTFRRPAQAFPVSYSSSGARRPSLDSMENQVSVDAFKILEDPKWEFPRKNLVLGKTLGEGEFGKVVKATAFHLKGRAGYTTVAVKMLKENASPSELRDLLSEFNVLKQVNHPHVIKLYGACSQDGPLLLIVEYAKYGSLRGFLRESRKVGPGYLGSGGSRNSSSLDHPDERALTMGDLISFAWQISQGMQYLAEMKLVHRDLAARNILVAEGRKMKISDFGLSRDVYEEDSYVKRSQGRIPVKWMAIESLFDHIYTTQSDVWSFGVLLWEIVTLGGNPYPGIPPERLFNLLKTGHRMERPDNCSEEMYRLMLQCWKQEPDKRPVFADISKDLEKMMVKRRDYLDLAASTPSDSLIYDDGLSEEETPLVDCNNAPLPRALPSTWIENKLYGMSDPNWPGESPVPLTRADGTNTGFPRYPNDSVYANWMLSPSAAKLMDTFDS
T2 sequence (P17948 27-1338): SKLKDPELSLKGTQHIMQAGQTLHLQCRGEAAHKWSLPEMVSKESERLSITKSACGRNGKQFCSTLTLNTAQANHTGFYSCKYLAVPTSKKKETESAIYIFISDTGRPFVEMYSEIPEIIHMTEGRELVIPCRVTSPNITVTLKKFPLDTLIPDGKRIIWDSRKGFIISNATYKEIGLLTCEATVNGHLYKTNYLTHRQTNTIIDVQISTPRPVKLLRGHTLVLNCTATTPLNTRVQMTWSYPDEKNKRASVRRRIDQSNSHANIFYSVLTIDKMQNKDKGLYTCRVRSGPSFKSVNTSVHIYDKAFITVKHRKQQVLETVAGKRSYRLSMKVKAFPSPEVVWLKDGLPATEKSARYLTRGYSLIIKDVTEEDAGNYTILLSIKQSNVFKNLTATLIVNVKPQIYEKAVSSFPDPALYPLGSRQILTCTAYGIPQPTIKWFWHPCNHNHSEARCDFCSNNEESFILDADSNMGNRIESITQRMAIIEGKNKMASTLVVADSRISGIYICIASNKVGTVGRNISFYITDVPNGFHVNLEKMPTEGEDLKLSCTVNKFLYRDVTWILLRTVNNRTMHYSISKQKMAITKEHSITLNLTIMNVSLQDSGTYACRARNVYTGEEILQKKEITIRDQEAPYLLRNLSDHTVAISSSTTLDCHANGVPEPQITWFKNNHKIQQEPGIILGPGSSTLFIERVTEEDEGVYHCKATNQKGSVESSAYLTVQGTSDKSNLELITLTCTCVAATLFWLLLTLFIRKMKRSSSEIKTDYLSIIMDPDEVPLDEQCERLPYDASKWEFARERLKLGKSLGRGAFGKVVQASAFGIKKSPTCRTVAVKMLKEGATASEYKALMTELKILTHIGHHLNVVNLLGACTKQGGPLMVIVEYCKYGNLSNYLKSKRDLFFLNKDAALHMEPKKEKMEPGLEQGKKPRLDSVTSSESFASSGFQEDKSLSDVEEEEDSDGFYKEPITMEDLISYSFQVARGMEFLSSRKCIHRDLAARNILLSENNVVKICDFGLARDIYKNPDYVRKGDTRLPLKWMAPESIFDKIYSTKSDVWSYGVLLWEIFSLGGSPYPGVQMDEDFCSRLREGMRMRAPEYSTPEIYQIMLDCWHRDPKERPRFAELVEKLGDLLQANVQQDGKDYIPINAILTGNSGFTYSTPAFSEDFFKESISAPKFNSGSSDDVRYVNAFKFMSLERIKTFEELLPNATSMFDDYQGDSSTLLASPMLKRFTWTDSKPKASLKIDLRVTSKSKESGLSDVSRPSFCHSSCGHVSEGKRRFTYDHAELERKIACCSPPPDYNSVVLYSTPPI
T8 sequence (P09619 33-1106): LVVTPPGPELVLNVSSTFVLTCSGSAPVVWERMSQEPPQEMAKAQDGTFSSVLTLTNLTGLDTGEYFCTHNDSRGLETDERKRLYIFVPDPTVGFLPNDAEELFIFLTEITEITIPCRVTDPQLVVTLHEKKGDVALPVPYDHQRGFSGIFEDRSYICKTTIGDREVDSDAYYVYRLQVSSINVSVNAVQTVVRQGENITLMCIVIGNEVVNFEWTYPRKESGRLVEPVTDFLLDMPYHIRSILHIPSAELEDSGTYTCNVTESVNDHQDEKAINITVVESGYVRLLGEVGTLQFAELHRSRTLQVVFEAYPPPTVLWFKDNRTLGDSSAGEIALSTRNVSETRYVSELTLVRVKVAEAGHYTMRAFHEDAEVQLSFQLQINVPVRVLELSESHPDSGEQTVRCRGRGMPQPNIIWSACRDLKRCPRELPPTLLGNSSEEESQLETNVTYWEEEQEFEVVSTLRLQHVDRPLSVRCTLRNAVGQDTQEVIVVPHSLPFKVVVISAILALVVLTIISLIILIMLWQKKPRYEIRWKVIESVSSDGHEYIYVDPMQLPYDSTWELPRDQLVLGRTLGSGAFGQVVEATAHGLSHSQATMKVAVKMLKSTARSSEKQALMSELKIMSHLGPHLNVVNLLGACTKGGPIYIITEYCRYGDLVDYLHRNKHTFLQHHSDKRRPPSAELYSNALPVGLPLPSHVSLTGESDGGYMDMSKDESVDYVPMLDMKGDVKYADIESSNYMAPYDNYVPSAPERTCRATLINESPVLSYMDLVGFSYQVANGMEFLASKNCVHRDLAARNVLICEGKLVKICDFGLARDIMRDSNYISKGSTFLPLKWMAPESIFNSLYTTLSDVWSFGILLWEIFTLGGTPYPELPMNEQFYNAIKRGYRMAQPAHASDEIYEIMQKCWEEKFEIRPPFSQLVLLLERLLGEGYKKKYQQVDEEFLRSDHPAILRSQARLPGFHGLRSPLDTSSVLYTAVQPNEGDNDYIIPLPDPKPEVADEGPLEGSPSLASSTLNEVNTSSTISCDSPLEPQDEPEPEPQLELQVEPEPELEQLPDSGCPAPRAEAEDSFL

CCc1nc(C(N)=O)c(Nc2ccc(N3CCC(N4CCN(C)CC4)CC3)c(OC)c2)nc1NC1CCOCC1 [Gilteritinib, gilteritinib]
Kd [1]: 46 nM
Kd [2]: 380 nM
Kd [3]: 150 nM
Kd [4]: 100 nM
Kd [5]: 86 nM
Kd [6]: 7.8 nM
Kd [7]: 53 nM
Kd [8]: 240 nM
Kd [9]: 11 nM
Kd [10]: 700 nM
Durability of inhibition of FLT3 and ERK phosphorylation after removal of inhibitor [11]: no significant inhibitory activity starting 1 hour after removal
Long-term durability of inhibition of FLT3 signaling after compound withdrawal [11]: no longer able to inhibit FLT3 signaling at 24 hours
IC50 [12]: 30.9 nM
IC50 [13]: 391 nM
IC50 [14]: 160 nM
IC50 ([15]; 72 h, MOLM-13, FLT3-ITD, 3 days, Supplementary Table 3): 10 nM
IC50 ([15]; parental MOLM-13, FLT3-ITD, Supplementary Table 4): 7.89 nM
IC50 ([16]; MOLM-14, FLT3-ITD, Supplementary Table 3): 7.41 nM
IC50 ([16]; parental MOLM-14, FLT3-ITD, Figure 4B): 7.87 nM
IC50 [17]: 2.01 nM
IC50 [18]: 1420 nM
IC50 [19]: 1530 nM
EC50, tumor growth inhibition [20]: > 10 mg/kg
IC50 [21]: 49.3 nM
IC50 [22]: 29.1 nM
IC50 [23]: 9.68 nM
IC50 [24]: 43 nM
IC50 [25]: 29.1 to 49.3 nM
TGI ([26]; 1 mg/kg oral once per day): 48%
TGI ([26]; 3 mg/kg oral once per day): 82%
TGI ([26]; 10 mg/kg oral once per day): 100%
EC90, tumor growth inhibition ([26]; oral once per day): 5.06 mg/kg
